Experimental findings from patent US20060211698A1, “Bicyclic heteroaryl derivatives for treating viruses” (Genelabs, Inc., priority 2005, published 2006) are described below.

The structures appear in SMILES notation.

This assay deals with T1, HCV-NS5b (Hepatitis C virus genotype 1b, UniProt Q9WMX2).
T1 construct: The cloned fragment was missing the C terminus 21 amino acid residues; (His)6 (C); made in house; host or cells: XL-1 cells (E. coli)
The experiment in a line: HCV-NS5b Enzyme Assay. Particulars: 1 μM test compound; incorporation of [3H]-UTP, 37° C., 2 hours. It counts as biochemical. In outline: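 The NS5B construct lacks its C-terminal 21 residues, carries a C-terminal His6 tag and was expressed in E. coli. [^3H]-UTP incorporation on a biotinylated HCV heteropolymeric template (10 ng/μL) with 10 μM each NTP, pH 7.5, 5 mM MgCl2 and 5% DMSO ran 2 h at 37° C and was read by SPA scintillation. IC50s came from 10-point 2-fold series starting at 50 or 2 μM.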
Take `O=C(O)c1ccc2c(C3CCCCC3)c(-c3ccc(-c4ccc5cc(Br)ccc5n4)cc3)n(CC(=O)N3CCOCC3)c2c1` [Compound 298, 2-[4-(6-Bromo-quinolin-2-yl)-phenyl]-3-cyclohexyl-1-(2-morpholin-4-yl-2-oxo-ethyl)-1H-indole-6-carboxylic acid]: the inhibition at 1 µM stood at 101%.

Regarding `CN(C)c1ccc(-c2ccc(-c3c(C4CCCCC4)c4ccc(C(=O)O)cc4n3CC(=O)N3CCOCC3)cc2)cc1` [Compound 299, 3-Cyclohexyl-2-(4′-dimethylamino-biphenyl-4-yl)-1-(2-morpholin-4-yl-2-oxo-ethyl)-1H-indole-6-carboxylic acid], the inhibition at 1 µM worked out at 94.9%. Take `Cc1ccc(-c2ccc(-c3c(C4CCCCC4)c4ccc(C(=O)O)cc4n3CC(=O)N3CCOCC3)cc2)cc1` [Compound 300, 3-Cyclohexyl-2-(4′-methyl-biphenyl-4-yl)-1-(2-morpholin-4-yl-2-oxo-ethyl)-1H-indole-6-carboxylic acid]: the inhibition at 1 µM turned out to be 98.2%.

For the compound `COc1ccc(-c2ccc(-c3c(C4CCCCC4)c4ccc(C(=O)O)cc4n3CC(=O)N3CCOCC3)cc2)cc1` [Compound 301, 3-Cyclohexyl-2-(4′-methoxy-biphenyl-4-yl)-1-(2-morpholin-4-yl-2-oxo-ethyl)-1H-indole-6-carboxylic acid], the inhibition at 1 µM worked out at 97%. With `O=C(O)c1ccc2c(C3CCCCC3)c(-c3ccc(-c4ccccc4F)cc3)n(CC(=O)N3CCOCC3)c2c1` [Compound 302, 3-Cyclohexyl-2-(2′-fluoro-biphenyl-4-yl)-1-(2-morpholin-4-yl-2-oxo-ethyl)-1H-indole-6-carboxylic acid] the figure was 99.3%; with `O=C(O)c1ccc2c(C3CCCCC3)c(-c3ccc(-c4cccnc4F)cc3)n(CC(=O)N3CCOCC3)c2c1` [Compound 303, 3-Cyclohexyl-2-[4-(2-fluoro-pyridin-3-yl)-phenyl]-1-(2-morpholin-4-yl-2-oxo-ethyl)-1H-indole-6-carboxylic acid], 98%. Regarding `COc1ncccc1-c1ccc(-c2c(C3CCCCC3)c3ccc(C(=O)O)cc3n2CC(=O)N2CCOCC2)cc1` [Compound 304, 3-Cyclohexyl-2-[4-(2-methoxy-pyridin-3-yl)-phenyl]-1-(2-morpholin-4-yl-2-oxo-ethyl)-1H-indole-6-carboxylic acid], the inhibition at 1 µM amounted to 98.5%.

For `N#Cc1cccc(-c2ccc(-c3c(C4CCCCC4)c4ccc(C(=O)O)cc4n3CC(=O)N3CCOCC3)cc2)c1` [Compound 306, 2-(3′-Cyano-biphenyl-4-yl)-3-cyclohexyl-1-(2-morpholin-4-yl-2-oxo-ethyl)-1H-indole-6-carboxylic acid], the inhibition at 1 µM is 97.8%. `N#Cc1ccc(-c2ccc(-c3c(C4CCCCC4)c4ccc(C(=O)O)cc4n3CC(=O)N3CCOCC3)cc2)cc1` [Compound 307, 2-(4′-Cyano-biphenyl-4-yl)-3-cyclohexyl-1-(2-morpholin-4-yl-2-oxo-ethyl)-1H-indole-6-carboxylic acid]: the inhibition at 1 µM was found to be 97.4%.

Regarding `COc1ccncc1-c1ccc(-c2c(C3CCCCC3)c3ccc(C(=O)O)cc3n2CC(=O)O)cc1` [Compound 308, 1-Carboxymethyl-3-cyclohexyl-2-[4-(4-methoxy-pyridin-3-yl)-phenyl]-1H-indole-6-carboxylic acid], the inhibition at 1 µM turned out to be 97.5%. Regarding `COc1cccc(-c2ccc(-c3c(C4CCCCC4)c4ccc(C(=O)O)cc4n3CC(=O)N3CCOCC3)cc2)c1` [Compound 309, 3-Cyclohexyl-2-(3′-methoxy-biphenyl-4-yl)-1-(2-morpholin-4-yl-2-oxo-ethyl)-1H-indole-6-carboxylic acid], the inhibition at 1 µM worked out at 98.8%.

As for `O=C(O)c1ccc2c(C3CCCCC3)c(-c3ccc(-c4cccc([N+](=O)[O-])c4)cc3)n(CC(=O)N3CCOCC3)c2c1` [Compound 310, 3-Cyclohexyl-2-(3′-nitro-biphenyl-4-yl)-1-(2-morpholin-4-yl-2-oxo-ethyl)-1H-indole-6-carboxylic acid], the inhibition at 1 µM was 99.6%. With `COc1ccccc1-c1ccc(-c2c(C3CCCCC3)c3ccc(C(=O)O)cc3n2CC(=O)N2CCOCC2)cc1` [Compound 311, 3-Cyclohexyl-2-(2′-methoxy-biphenyl-4-yl)-1-(2-morpholin-4-yl-2-oxo-ethyl)-1H-indole-6-carboxylic acid] the figure was 102%; with `Cc1cccc(-c2ccc(-c3c(C4CCCCC4)c4ccc(C(=O)O)cc4n3CC(=O)N3CCOCC3)cc2)c1` [Compound 312, 3-Cyclohexyl-2-(3′-methyl-biphenyl-4-yl)-1-(2-morpholin-4-yl-2-oxo-ethyl)-1H-indole-6-carboxylic acid], 99.5%; with `Cc1ccccc1-c1ccc(-c2c(C3CCCCC3)c3ccc(C(=O)O)cc3n2CC(=O)N2CCOCC2)cc1` [Compound 313, 3-Cyclohexyl-2-(2′-methyl-biphenyl-4-yl)-1-(2-morpholin-4-yl-2-oxo-ethyl)-1H-indole-6-carboxylic acid], 99.6%. As for `C=Cc1ccc(-c2ccc(-c3c(C4CCCCC4)c4ccc(C(=O)O)cc4n3CC(=O)N3CCOCC3)cc2)cc1` [Compound 314, 3-Cyclohexyl-1-(2-morpholin-4-yl-2-oxo-ethyl)-2-(4′-vinyl-biphenyl-4-yl)-1H-indole-6-carboxylic acid], the figure is 98%. As for `Nc1cccc(-c2ccc(-c3c(C4CCCCC4)c4ccc(C(=O)O)cc4n3CC(=O)N3CCOCC3)cc2)c1` [Compound 315, 2-(3′-Amino-biphenyl-4-yl)-3-cyclohexyl-1-(2-morpholin-4-yl-2-oxo-ethyl)-1H-indole-6-carboxylic acid], the figure is 95.8%.

For the compound `Cc1ccc(-c2ccc(-c3c(C4CCCCC4)c4ccc(C(=O)O)cc4n3CC(=O)N3CCOCC3)cc2)s1` [Compound 316, 3-Cyclohexyl-2-[4-(5-methyl-thiophen-2-yl)-phenyl]-1-(2-morpholin-4-yl-2-oxo-ethyl)-1H-indole-6-carboxylic acid], the inhibition at 1 µM is 101%. With `Cc1noc(C)c1-c1ccc(-c2c(C3CCCCC3)c3ccc(C(=O)O)cc3n2CC(=O)N2CCOCC2)cc1` [Compound 317, 3-Cyclohexyl-2-[4-(3,5-dimethyl-isoxazol-4-yl)-phenyl]-1-(2-morpholin-4-yl-2-oxo-ethyl)-1H-indole-6-carboxylic acid] the figure was 96.7%. Consider `O=C(O)c1ccc2c(C3CCCCC3)c(-c3ccc(-c4ccc(Cl)s4)cc3)n(CC(=O)N3CCOCC3)c2c1` [Compound 318, 2-[4-(5-Chloro-thiophen-2-yl)-phenyl]-3-cyclohexyl-1-(2-morpholin-4-yl-2-oxo-ethyl)-1H-indole-6-carboxylic acid], for which the inhibition at 1 µM worked out at 98.1%. With `Cc1nc(C)c(-c2ccc3cc(-c4c(C5CCCCC5)c5ccc(C(=O)O)cc5n4CC(=O)N4CCOCC4)cnc3n2)s1` [Compound 319, 3-Cyclohexyl-2-[7-(2,4-dimethyl-thiazol-5-yl)-[1,8]naphthyridin-3-yl]-1-(2-morpholin-4-yl-2-oxo-ethyl)-1H-indole-6-carboxylic acid], the inhibition at 1 µM amounted to 74.3%. As for `Cc1nc(C)c(-c2nc3ccc(-c4c(C5CCCCC5)c5ccc(C(=O)O)cc5n4CC(=O)N4CCOCC4)cc3[nH]2)s1` [Compound 320, 3-Cyclohexyl-2-[2-(2,4-dimethyl-thiazol-5-yl)-3H-benzoimidazol-5-yl]-1-(2-morpholin-4-yl-2-oxo-ethyl)-1H-indole-6-carboxylic acid], the figure is 84.1%. With `Cc1cccc(-c2ccc3cc(-c4c(C5CCCCC5)c5ccc(C(=O)O)cc5n4CC(=O)N4CCOCC4)ccc3c2)c1` [Compound 321, 3-Cyclohexyl-1-(2-morpholin-4-yl-2-oxo-ethyl)-2-(6-m-tolyl-naphthalen-2-yl)-1H-indole-6-carboxylic acid] the figure was 98.2%; with `O=C(O)c1ccc2c(C3CCCCC3)c(-c3ccc4cc(-c5ccccc5F)ccc4c3)n(CC(=O)N3CCOCC3)c2c1` [Compound 322, 3-Cyclohexyl-2-[6-(2-fluoro-phenyl)-naphthalen-2-yl]-1-(2-morpholin-4-yl-2-oxo-ethyl)-1H-indole-6-carboxylic acid], 95.1%.

Regarding `Cc1nc(C)c(C2CCc3cc(-c4c(C5CCCCC5)c5ccc(C(=O)O)cc5n4CC(=O)N4CCOCC4)ccc3N2)s1` (centres unmarked) [Compound 323, 3-Cyclohexyl-2-[2-(2,4-dimethyl-thiazol-5-yl)-1,2,3,4-tetrahydro-quinolin-6-yl]-1-(2-morpholin-4-yl-2-oxo-ethyl)-1H-indole-6-carboxylic acid], the inhibition at 1 µM turned out to be 97.6%. With `O=C(O)c1ccc2c(C3CCCCC3)c(-c3ccc4nc(-c5ccncc5)ccc4c3)n(CC(=O)N3CCOCC3)c2c1` [Compound 325, 3-Cyclohexyl-1-(2-morpholin-4-yl-2-oxo-ethyl)-2-(2-pyridin-4-yl-quinolin-6-yl)-1H-indole-6-carboxylic acid] the figure was 93.6%.

Turning to `O=C(O)c1ccc2c(C3CCCCC3)c(-c3ccc(-c4ccc5ccccc5n4)cc3)n(CC(=O)N3CCOCC3)c2c1` [Compound 326, 3-Cyclohexyl-1-(2-morpholin-4-yl-2-oxo-ethyl)-2-(4-quinolin-2-yl-phenyl)-1H-indole-6-carboxylic acid], the inhibition at 1 µM stood at 99.8%. Consider `O=C(O)c1ccc2c(C3CCCCC3)c(-c3ccc4ncc(-c5ccccc5)cc4c3)n(CC(=O)N3CCOCC3)c2c1` [Compound 327, 3-Cyclohexyl-1-(2-morpholin-4-yl-2-oxo-ethyl)-2-(3-phenyl-quinolin-6-yl)-1H-indole-6-carboxylic acid], for which the inhibition at 1 µM turned out to be 96.3%. With `O=C(O)c1ccc2c(C3CCCCC3)c(-c3ccc4cc(-c5ccccc5)ccc4c3)n(CC(=O)N3CCOCC3)c2c1` [Compound 328, 3-Cyclohexyl-1-(2-morpholin-4-yl-2-oxo-ethyl)-2-(6-phenyl-naphthalen-2-yl)-1H-indole-6-carboxylic acid] the figure was 101%.

One may read the inhibition as the change of the read-out against control, counted positive when it falls.
